Each molecule was assayed against nsp14 methyltransferase from SARS-CoV-2 (Severe acute respiratory syndrome coronavirus 2, UniProt P0DTD1) (assay: Nsp14 MTase activity inhibition in vitro (EchoMS assay)). Conditions: recombinant nsp14 protein expressed in E. coli; dose-response curve.
Format: biochemical

First: Cc1ccc(-c2onc(C)c2CSC[C@H]2O[C@@H](n3ccc4c(N)ncnc43)[C@H](O)[C@@H]2O)cc1C [Compound 95c, (2R,3R,4S,5S)-2-(4-Amino-7H-pyrrolo[2,3-d]pyrimidin-7-yl)-5-((((5-(3,4-dimethylphenyl)-3-methylisoxazol-4-yl)methyl)thio)methyl)tetrahydrofuran-3,4-diol]
Second: Cc1noc(-c2ccc(F)cc2)c1CSC[C@H]1O[C@@H](n2ccc3c(N)ncnc32)[C@H](O)[C@@H]1O [Compound 97c, (2R,3R,4S,5S)-2-(4-Amino-7H-pyrrolo[2,3-d]pyrimidin-7-yl)-5-((((5-(4-fluorophenyl)-3-methylisoxazol-4-yl)methyl)thio)methyl)tetrahydrofuran-3,4-diol]
The IC50 of the first is lower: 10 to 30 nM for the first, 100 to 500 nM for the second. The first is the more potent here.

Compared with `Cc1noc(-c2ccccc2)c1CSC[C@H]1O[C@@H](n2cc(C#Cc3cccc4ccccc34)c3c(N)ncnc32)[C@H](O)[C@@H]1O` [Compound 175b, (2R,3R,4S,5S)-2-(4-Amino-5-(naphthalen-1-ylethynyl)-7H-pyrrolo[2,3-d]pyrimidin-7-yl)-5-((((3-methyl-5-phenylisoxazol-4-yl)methyl)thio)methyl)tetrahydrofuran-3,4-diol], `Cc1noc(-c2ccccc2)c1CSC[C@H]1O[C@@H](n2cc(C#Cc3ccccc3)c3c(N)ncnc32)[C@H](O)[C@@H]1O` [Compound 180, (2R,3R,4S,5S)-2-(4-Amino-5-(phenylethynyl)-7H-pyrrolo[2,3-d]pyrimidin-7-yl)-5-((((3-methyl-5-phenylisoxazol-4-yl)methyl)thio)methyl)tetrahydrofuran-3,4-diol] is lower in IC50: 500 to 2000 nM for the first, 30 to 100 nM for the second.

`Cc1noc(-c2ccccc2)c1CSC[C@H]1O[C@@H](n2ncc3c(N)ncnc32)[C@H](O)[C@@H]1O` [Compound 213, (2R,3R,4S,5S)-2-(4-Amino-1H-pyrazolo[3,4-d]pyrimidin-1-yl)-5-((((3-methyl-5-phenylisoxazol-4-yl)methyl)thio)methyl)tetrahydrofuran-3,4-diol] and `Cc1noc(-c2ccccc2)c1CSC[C@H]1O[C@@H](n2cc(-c3ccnn3C)c3c(N)ncnc32)[C@H](O)[C@@H]1O` [Compound 154] fall in the same range of IC50: 30 to 100 nM for the first, 30 to 100 nM for the second.

`Cc1noc(-c2ccc3c(c2)OCO3)c1CSC[C@H]1O[C@@H](n2cc(-c3ccc(C#N)cc3)c3c(N)ncnc32)[C@H](O)[C@@H]1O` [Compound 236b] and `Cc1noc(-c2ccc(N)cc2)c1CSC[C@H]1O[C@@H](n2cc(-c3ccc(C#N)cc3)c3c(N)ncnc32)[C@H](O)[C@@H]1O` [Compound 234b, 4-(4-Amino-7-((2R,3R,4S,5S)-5-((((5-(4-aminophenyl)-3-methylisoxazol-4-yl)methyl)thio)methyl)-3,4-dihydroxytetrahydrofuran-2-yl)-7H-pyrrolo[2,3-d]pyrimidin-5-yl)benzonitrile] fall in the same range of IC50: 10 to 30 nM for the first, 10 to 30 nM for the second.

`Cc1cc(C#N)cc(C)c1-c1cn([C@@H]2O[C@H](CSCc3c(C)noc3-c3ccccc3)[C@@H](O)[C@H]2O)c2ncnc(N)c12` [Compound 150, 4-(4-Amino-7-((2R,3R,4S,5S)-3,4-dihydroxy-5-((((3-methyl-5-phenylisoxazol-4-yl)methyl)thio)methyl)tetrahydrofuran-2-yl)-7H-pyrrolo[2,3-d]pyrimidin-5-yl)-3,5-dimethylbenzonitrile] and `Cc1noc(-c2ccccc2)c1CSC[C@H]1O[C@@H](n2cc(-c3ccc(C#N)cc3)c3c(N)ncnc32)[C@H](O)[C@@H]1O` [Compound 143b, 4-(4-Amino-7-((2R,3R,4S,5S)-3,4-dihydroxy-5-((((3-methyl-5-phenylisoxazol-4-yl)methyl)thio)methyl)tetrahydrofuran-2-yl)-7H-pyrrolo[2,3-d]pyrimidin-5-yl)benzonitrile] fall in the same range of IC50: 10 to 30 nM for the first, 10 to 30 nM for the second.

First: Cc1noc(-c2ccccc2)c1CSC[C@H]1O[C@@H](n2cc(C#Cc3ncc[nH]3)c3c(N)ncnc32)[C@H](O)[C@@H]1O [Compound 178b, (2R,3R,4S,5S)-2-(5-((1H-Imidazol-2-yl)ethynyl)-4-amino-7H-pyrrolo[2,3-d]pyrimidin-7-yl)-5-((((3-methyl-5-phenylisoxazol-4-yl)methyl)thio)methyl)tetrahydrofuran-3,4-diol]
Second: Cc1noc(-c2ccccc2)c1CSC[C@H]1O[C@@H](n2cc(C#Cc3ccccn3)c3c(N)ncnc32)[C@H](O)[C@@H]1O [Compound 171b, (2R,3R,4S,5S)-2-(4-Amino-5-(pyridin-2-ylethynyl)-7H-pyrrolo[2,3-d]pyrimidin-7-yl)-5-((((3-methyl-5-phenylisoxazol-4-yl)methyl)thio)methyl)tetrahydrofuran-3,4-diol]
The IC50 of the first is higher: 30 to 100 nM for the first, 10 to 30 nM for the second. The second is the more potent here.

First: Cc1noc(-c2ccccc2)c1CSC[C@H]1O[C@@H](n2cc(Cc3ccc4ccccc4c3)c3c(N)ncnc32)[C@H](O)[C@@H]1O [Compound 186b, (2R,3R,4S,5S)-2-(4-Amino-5-(naphthalen-2-ylmethyl)-7H-pyrrolo[2,3-d]pyrimidin-7-yl)-5-((((3-methyl-5-phenylisoxazol-4-yl)methyl)thio)methyl)tetrahydrofuran-3,4-diol]
Second: Cc1noc(-c2ccccc2)c1CSC[C@H]1O[C@@H](n2cc(-c3ccc4ccccc4c3)c3c(N)ncnc32)[C@H](O)[C@@H]1O [Compound 148b, (2R,3R,4S,5S)-2-(4-Amino-5-(naphthalen-2-yl)-7H-pyrrolo[2,3-d]pyrimidin-7-yl)-5-((((3-methyl-5-phenylisoxazol-4-yl)methyl)thio)methyl)tetrahydrofuran-3,4-diol]
The IC50 of the first is higher: 500 to 2000 nM for the first, 100 to 500 nM for the second.

`Cc1noc(-c2ccccc2)c1CSC[C@H]1O[C@@H](n2cc(-c3ccc(-c4cccnc4)cc3)c3c(N)ncnc32)[C@H](O)[C@@H]1O` [Compound 187] and `COc1ccc(/C=C/c2cn([C@@H]3O[C@H](CSCc4c(C)noc4-c4ccccc4)[C@@H](O)[C@H]3O)c3ncnc(N)c23)cc1` [Compound 182b, (2R,3R,4S,5S)-2-(4-Amino-5-((E)-4-methoxystyryl)-7H-pyrrolo[2,3-d]pyrimidin-7-yl)-5-((((3-methyl-5-phenylisoxazol-4-yl)methyl)thio)methyl)tetrahydrofuran-3,4-diol] fall in the same range of IC50: 30 to 100 nM for the first, 30 to 100 nM for the second.

First: Cc1ncnc(-c2ccccc2)c1CSC[C@H]1O[C@@H](n2cc(C#Cc3cncnc3)c3c(N)ncnc32)[C@H](O)[C@@H]1O [Compound 239c, (2R,3R,4S,5S)-2-(4-Amino-5-(pyrimidin-5-ylethynyl)-7H-pyrrolo[2,3-d]pyrimidin-7-yl)-5-((((4-methyl-6-phenylpyrimidin-5-yl)methyl)thio)methyl)tetrahydrofuran-3,4-diol]
Second: Cc1noc(-c2ccccc2)c1CSC[C@H]1O[C@@H](n2cc(C#Cc3cncnc3)c3c(N)ncnc32)[C@H](O)[C@@H]1O [Compound 172b]
The IC50 of the first is higher: 30 to 100 nM for the first, 10 to 30 nM for the second. The second is the more potent here.

First: Cc1nc(N)c2ccn([C@@H]3O[C@H](CSCc4c(C)noc4-c4ccccc4)[C@@H](O)[C@H]3O)c2n1 [Compound 208, (2R,3R,4S,5S)-2-(4-Amino-2-methyl-7H-pyrrolo[2,3-d]pyrimidin-7-yl)-5-((((3-methyl-5-phenylisoxazol-4-yl)methyl)thio)methyl)tetrahydrofuran-3,4-diol]
Second: CCCCCc1cn([C@@H]2O[C@H](CSCc3c(C)noc3-c3ccccc3)[C@@H](O)[C@H]2O)c2ncnc(N)c12 [Compound 132b, (2R,3R,4S,5S)-2-(4-Amino-5-pentyl-7H-pyrrolo[2,3-d]pyrimidin-7-yl)-5-((((3-methyl-5-phenylisoxazol-4-yl)methyl)thio)methyl)tetrahydrofuran-3,4-diol]
The IC50 of the first is lower: 30 to 100 nM for the first, 500 to 2000 nM for the second. The first is the more potent here.

`Cc1ccc(-c2onc(C)c2CSC[C@H]2O[C@@H](n3cc(C#Cc4cncnc4)c4c(N)ncnc43)[C@H](O)[C@@H]2O)cc1C` [Compound 242c, (2R,3R,4S,5S)-2-(4-Amino-5-(pyrimidin-5-ylethynyl)-7H-pyrrolo[2,3-d]pyrimidin-7-yl)-5-((((5-(3,4-dimethylphenyl)-3-methylisoxazol-4-yl)methyl)thio)methyl)tetrahydrofuran-3,4-diol] and `Cc1noc(-c2ccccc2)c1CSC[C@H]1O[C@@H](n2cc(C#Cc3ccnnc3)c3c(N)ncnc32)[C@H](O)[C@@H]1O` [Compound 173b] fall in the same range of IC50: 10 to 30 nM for the first, 10 to 30 nM for the second.

Compared with `Cn1c(-c2ccccc2)nc(-c2ccccc2)c1CSC[C@H]1O[C@@H](n2ccc3c(N)ncnc32)[C@H](O)[C@@H]1O` [Compound 120c, (2R,3R,4S,5S)-2-(4-Amino-7H-pyrrolo[2,3-d]pyrimidin-7-yl)-5-((((1-methyl-2,4-diphenyl-1H-imidazol-5-yl)methyl)thio)methyl)tetrahydrofuran-3,4-diol], `Cc1ncnc(-c2ccccc2)c1CSC[C@H]1O[C@@H](n2ccc3c(N)ncnc32)[C@H](O)[C@@H]1O` [Compound 56c, (2R,3R,4S,5S)-2-(4-Amino-7H-pyrrolo[2,3-d]pyrimidin-7-yl)-5-((((4-methyl-6-phenylpyrimidin-5-yl)methyl)thio)methyl)tetrahydrofuran-3,4-diol] is higher in IC50: 30 to 100 nM for the first, 100 to 500 nM for the second.

Compared with `Cc1noc(-c2ccccc2)c1CSC[C@H]1O[C@@H](n2cc(CCc3cncnc3)c3c(N)ncnc32)[C@H](O)[C@@H]1O` [Compound 183, (2R,3R,4S,5S)-2-(4-Amino-5-(2-(pyrimidin-5-yl)ethyl)-7H-pyrrolo[2,3-d]pyrimidin-7-yl)-5-((((3-methyl-5-phenylisoxazol-4-yl)methyl)thio)methyl)tetrahydrofuran-3,4-diol], `Cc1ncnc(-c2ccccc2)c1CSC[C@H]1O[C@@H](n2cc(I)c3c(N)ncnc32)[C@H](O)[C@@H]1O` [Compound 246, (2R,3R,4S,5S)-2-(4-Amino-5-iodo-7H-pyrrolo[2,3-d]pyrimidin-7-yl)-5-((((4-methyl-6-phenylpyrimidin-5-yl)methyl)thio)methyl)tetrahydrofuran-3,4-diol] is lower in IC50: 30 to 100 nM for the first, 10 to 30 nM for the second. The second is the more potent here.

Compared with `Nc1ncnc2c1ccn2[C@@H]1O[C@H](CSCc2cnsc2-c2ccccc2)[C@@H](O)[C@H]1O` [Compound 103c, (2R,3R,4S,5S)-2-(4-Amino-7H-pyrrolo[2,3-d]pyrimidin-7-yl)-5-((((5-phenylisothlazol-4-yl)methyl)thio)methyl)tetrahydrofuran-3,4-diol], `CCc1onc(-c2ccccc2)c1CSC[C@H]1O[C@@H](n2ccc3c(N)ncnc32)[C@H](O)[C@@H]1O` [Compound 106c, (2R,3R,4S,5S)-2-(4-Amino-7H-pyrrolo[2,3-d]pyrimidin-7-yl)-5-((((5-ethyl-3-phenyllsoxazol-4-yl)methyl)thio)methyl)tetrahydrofuran-3,4-diol] is lower in IC50: 500 to 2000 nM for the first, 100 to 500 nM for the second. The second is the more potent here.
